In ChEMBL document CHEMBL1140295, “Synthesis and monoamine transporter binding properties of 2,3-diaryltropanes” (J Med Chem, 2005):

Legend:
[1] = biological target: Sodium-dependent dopamine transporter (Homo sapiens, UniProt Q01959); assay: Displacement of [3H]WIN-35428 from DAT
[2] = biological target: Sodium-dependent serotonin transporter (Homo sapiens, UniProt P31645); assay: Displacement of [3H]paroxetine from 5HTT
[3] = biological target: Sodium-dependent noradrenaline transporter (Homo sapiens, UniProt P23975); assay: Displacement of [3H]nisoxetine from NET
Sodium-dependent noradrenaline transporter, sequence (P23975 whole entry): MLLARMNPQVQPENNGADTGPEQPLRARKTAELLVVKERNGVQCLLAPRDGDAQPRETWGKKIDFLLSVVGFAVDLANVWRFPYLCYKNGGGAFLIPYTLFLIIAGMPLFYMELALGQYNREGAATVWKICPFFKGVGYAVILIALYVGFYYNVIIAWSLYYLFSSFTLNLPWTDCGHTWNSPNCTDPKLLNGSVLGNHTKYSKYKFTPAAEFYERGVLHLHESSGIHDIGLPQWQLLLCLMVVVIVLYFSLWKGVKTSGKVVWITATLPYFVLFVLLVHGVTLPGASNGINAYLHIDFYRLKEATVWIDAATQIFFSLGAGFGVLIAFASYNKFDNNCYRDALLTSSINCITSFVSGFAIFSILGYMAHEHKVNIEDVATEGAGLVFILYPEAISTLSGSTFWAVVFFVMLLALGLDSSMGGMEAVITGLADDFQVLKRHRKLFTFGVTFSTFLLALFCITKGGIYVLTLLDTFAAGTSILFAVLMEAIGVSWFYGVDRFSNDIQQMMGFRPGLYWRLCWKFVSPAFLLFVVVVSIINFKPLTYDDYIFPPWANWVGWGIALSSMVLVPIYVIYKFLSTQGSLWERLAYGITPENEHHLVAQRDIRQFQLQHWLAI

Homo sapiens [4] = organism: Homo sapiens; assay: Selectivity for DAT over NET
Homo sapiens [5] = organism: Homo sapiens; assay: Selectivity for DAT over 5HTT

Sodium-dependent dopamine transporter, sequence (Q01959 whole entry): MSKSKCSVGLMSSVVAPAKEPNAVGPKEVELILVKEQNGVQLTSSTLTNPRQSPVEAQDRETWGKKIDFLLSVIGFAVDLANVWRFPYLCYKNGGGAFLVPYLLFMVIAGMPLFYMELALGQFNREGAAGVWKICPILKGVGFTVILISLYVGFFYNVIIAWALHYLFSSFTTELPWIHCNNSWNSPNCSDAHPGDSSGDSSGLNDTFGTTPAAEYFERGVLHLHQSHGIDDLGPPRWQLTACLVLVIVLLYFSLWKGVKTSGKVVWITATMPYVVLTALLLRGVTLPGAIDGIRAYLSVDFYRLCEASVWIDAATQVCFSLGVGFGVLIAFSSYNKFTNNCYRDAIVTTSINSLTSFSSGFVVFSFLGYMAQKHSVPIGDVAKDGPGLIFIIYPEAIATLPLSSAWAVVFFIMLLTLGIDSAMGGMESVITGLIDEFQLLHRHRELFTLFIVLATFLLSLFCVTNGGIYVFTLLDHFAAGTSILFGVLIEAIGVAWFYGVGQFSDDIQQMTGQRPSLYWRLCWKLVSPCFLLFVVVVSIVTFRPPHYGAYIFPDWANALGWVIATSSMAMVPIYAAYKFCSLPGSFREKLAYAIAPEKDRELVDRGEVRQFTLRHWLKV
Sodium-dependent serotonin transporter, sequence (P31645 whole entry): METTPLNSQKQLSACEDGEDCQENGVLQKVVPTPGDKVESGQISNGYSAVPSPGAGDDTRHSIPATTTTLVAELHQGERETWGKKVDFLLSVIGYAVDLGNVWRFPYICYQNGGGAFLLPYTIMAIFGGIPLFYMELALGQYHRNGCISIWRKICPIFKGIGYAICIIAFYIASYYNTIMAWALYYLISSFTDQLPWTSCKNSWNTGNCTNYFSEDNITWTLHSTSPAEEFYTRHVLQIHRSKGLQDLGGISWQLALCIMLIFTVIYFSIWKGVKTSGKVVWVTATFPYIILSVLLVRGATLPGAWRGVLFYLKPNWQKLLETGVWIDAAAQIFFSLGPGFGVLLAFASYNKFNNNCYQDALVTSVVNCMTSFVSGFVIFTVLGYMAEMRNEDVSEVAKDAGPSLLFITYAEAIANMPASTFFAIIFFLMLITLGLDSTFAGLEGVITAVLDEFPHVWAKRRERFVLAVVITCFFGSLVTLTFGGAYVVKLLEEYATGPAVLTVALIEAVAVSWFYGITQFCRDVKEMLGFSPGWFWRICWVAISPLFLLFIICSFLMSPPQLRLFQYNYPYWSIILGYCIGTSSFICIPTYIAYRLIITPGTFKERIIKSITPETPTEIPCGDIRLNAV

SMILES | IC50 [1] | IC50 [2] | Ki [2] | IC50 [3] | Ki [3] | Selectivity ratio (Homo sapiens [4]) | Selectivity ratio (Homo sapiens [5])
COc1ccc([C@H]2C3CCC(C[C@H]2c2ccc(C)cc2)N3C)cc1 (some centres not stated) | 238 nM | 1530 nM | 376 nM | – | – | – | –
COC(=O)[C@@H]1C2CC[C@H](C[C@@H]1c1ccc(C)cc1)N2C | 23.4 nM | – | – | 3850 nM | 1930 nM | – | –
Cc1ccc([C@H]2CC3CCC([C@H]2c2ccccc2)N3C)cc1 (some centres not stated) | 1.96 nM | 1100 nM | 100 nM | 480 nM | 280 nM | – | –
Cc1ccc([C@H]2C3CCC(C[C@H]2c2ccccc2)N3C)cc1 (some centres not stated) | 540 nM | 11000 nM | 1000 nM | 4700 nM | 2800 nM | – | –
CN1C2CCC1[C@H](c1ccccc1)[C@H](c1ccccc1)C2 (some centres not stated) | 690 nM | 41000 nM | 3700 nM | 1040 nM | 626 nM | – | –
CN1C2CCC1[C@@H](c1ccccc1)[C@@H](c1ccccc1)C2 (some centres not stated) | 12.6 nM | 21000 nM | 1900 nM | 920 nM | 550 nM | – | –
COc1ccc([C@@H]2C3CCC(C[C@H]2c2ccc(C)cc2)N3C)cc1OC (some centres not stated) | 980 nM | 16200 nM | 1470 nM | 78000 nM | 46000 nM | – | –
Cc1ccc([C@@H]2CC3CCC([C@@H]2c2ccccc2)N3C)cc1 (some centres not stated) | 430 nM | 16000 nM | 1500 nM | 4850 nM | 2920 nM | – | –
Cc1ccc([C@H]2CC3CCC([C@H]2c2ccc(F)cc2)N3C)cc1 (some centres not stated) | 0.9 nM | 100 nM | 25 nM | 132 nM | 61 nM | – | –
Cc1ccc([C@@H]2C3CCC(C[C@@H]2c2ccccc2)N3C)cc1 (some centres not stated) | 22.4 nM | 45000 nM | 4100 nM | 6100 nM | 3700 nM | – | –
COc1ccc([C@@H]2C3CCC(C[C@@H]2c2ccc(C)cc2)N3C)cc1 (some centres not stated) | 1.23 nM | 1670 nM | 410 nM | 282 nM | 191 nM | – | –
Cc1ccc([C@H]2CC3CCC([C@H]2c2ccc(C)cc2)N3C)cc1 (some centres not stated) | 1.35 nM | 1010 nM | 250 nM | 780 nM | 390 nM | 289 | 185
COc1ccc([C@@H]2C3CCC(C[C@@H]2c2ccc(C)cc2)N3C)cc1OC (some centres not stated) | 23.3 nM | 13700 nM | 1250 nM | 10000 nM | 6000 nM | – | –
Cc1ccc([C@@H]2CC3CCC([C@@H]2c2ccc(C)cc2)N3C)cc1 (some centres not stated) | – | 10000 nM | 910 nM | 13000 nM | 7800 nM | – | –
